In article PMC11106165, “Repurposing the KCa3.1 Blocker Senicapoc for Ischemic Stroke” (Translational Stroke Research, 2023):
Like-named read-outs stand apart in the source and are kept apart here.

How the values were obtained:
[1] = test system: MMC (mouse microglial cell line); assay: RT-qPCR of inflammatory markers in LPS-stimulated MMC; assay type: cell-based; settings: 24 h 100 ng/mL LPS
Method: An immortalized mouse microglial cell (MMC) line was kindly provided by Dr. D.T. Golenbock (University of Massachusetts Medical School, Worcester, MA) and previously used by our laboratory. Cells were cultured in Gibco’s Dulbecco’s modified Eagle’s Medium (DMEM, high glucose, L-glutamine, high pyruvate) with 5% CO2 at 37° with 1% penicillin/streptomycin and 10% fetal bovine serum. For the qPCR experiments, cells were seeded at 200,000 cells/mL; 24 h later, medium was changed to DMEM with 2% FBS and cells were stimulated with 100 ng/mL lipopolysaccharide (LPS), in the presence or absence of senicapoc, or a 0.2% DMSO control. Cells were pre-incubated with senicapoc for 1 h prior to stimulation and harvested 24 h after stimulation.
After MRIs were completed, mice were euthanized with an overdose of isoflurane, brains harvested, split into ipsilateral and contralateral hemispheres, and immediately frozen with liquid N2. Brain hemispheres were homogenized in mortar and pestles with liquid N2. RNA was extracted from brain homogenates (Fig. 7b) or MMC cell pellets (Fig. 2) with Trizol (ThermoFisher, Catalog # 15,596,026) according to the manufacturer’s protocol. RNA purity and concentration were assessed using a Nanodrop Spectrophotometer ND-1000 (Marshall Scientific). The 260 nm/280 nm absorption ratios for the samples ranged from 1.95 to 2.00. Subsequently, a cDNA library was made with a High-Capacity cDNA Reverse Transcription Kit (ThermoFisher Scientific, Catalog# 4,374,967), with 2 µg of total RNA per […]. Reactions were carried out in a PTC-200 Peltier Thermal Cycler; the conditions were as follows: 25 °C for 10 min, 37 °C for 120 min, 85 °C for 5 min, with final storage at 4 °C. RT-qPCR reactions were conducted in an Applied Biosystems Viia7 Real-Time PCR System using Maxima SYBR Green/ROX qPCR Master Mix (ThermoFisher Scientific, Catalog #K022) and with the recommended three-step cycling protocol. […] Fold change was calculated by the ∆∆Ct method. […]

[2] = Brain tissue extract binding by rapid equilibrium dialysis; assay type: in vitro ADME; settings: mouse brain extract, triplicate
Method: (§1) In order to determine whether senicapoc sufficiently engages its target, additional mice were subjected to 60 min of MCAO, treated with 40 mg/kg senicapoc IP 12 h after reperfusion and then sacrificed 1 h, 4 h, and 12 h later. Mice were deeply anesthetized with isoflurane, and blood was collected from the vena cava into EDTA tubes, and then transcardially perfused with 30 mL of saline. The brain was removed, and the forebrain divided into ipsi- and contralateral side. Brain and plasma samples were stored at − 80 °C pending analysis and then prepared and analyzed as previously described using a Waters Acquity UPLC (Waters, NY) equipped with a Acquity UPLC BEH 1.7 μm C-18 column interfaced to a TSQ Quantum Access Max mass spectrometer (Thermo Fisher Scientific, MA). Senicapoc was analyzed by the selective reaction monitoring transition of its molecular ion peak 324.09 (M + 1) into 228.07, 200.07, 183.11, and 122.18 m/z. An 8-point calibration curve ranging from 50 nM to 10 μM was used for quantification. Senicapoc plasma protein binding was determined with mouse plasma or mouse brain extract in triplicate using rapid equilibrium devices with a molecular weight cutoff of 8 kD (RED, Fisher Scientific).

[3] = Plasma protein binding by rapid equilibrium dialysis; assay type: in vitro ADME; settings: mouse plasma, triplicate
Method: as §1

[4] = humans; cited from earlier work
[5] = target: T1, human tPA (Homo sapiens, UniProt P00750); assay: Chromogenic tPA activity assay; assay type: biochemical; settings: 0.5 μM and 5 μM, 30-min assay, PBS with 10% human serum
T1 construct: purchased Abcam ab108905
Description: The commercially available tPA Activity Assay Kit (Abcam, ab108905) was used to assess whether senicapoc and TRAM-34 affect the ability of human tPA to cleave its substrate plasminogen similar to protocols published by Lapchak and Boitano [38] and Lapchak et al.. Reactions were run in optically clear flat-bottom 96-well plates (Corning, Catalog #3904). Human plasminogen activator inhibitor-1 (PAI-1; Sigma-Aldrich CC4075) was used as a positive control. Human plasminogen, the chromogenic plasmin substrate, and human tPA were included in the tPA Activity Assay Kit. […] The reactions were pre-incubated at 37 °C for 5 min prior to the addition of the chromogenic plasmin substrate and subsequently placed in a heated SpectraMax M5 spectrophotometer. Absorbances at 405 nm were measured every 30 s for 30 min.

[6] = test system: male C57BL/6 J mice, tMCAO; assay: RT-qPCR of inflammatory markers in brain on day 8 after tMCAO; assay type: in vivo, mouse
Method: After MRIs were completed, mice were euthanized with an overdose of isoflurane, brains harvested, split into ipsilateral and contralateral hemispheres, and immediately frozen with liquid N2. Brain hemispheres were homogenized in mortar and pestles with liquid N2. RNA was extracted from brain homogenates (Fig. 7b) or MMC cell pellets (Fig. 2) with Trizol (ThermoFisher, Catalog # 15,596,026) according to the manufacturer’s protocol. RNA purity and concentration were assessed using a Nanodrop Spectrophotometer ND-1000 (Marshall Scientific). The 260 nm/280 nm absorption ratios for the samples ranged from 1.95 to 2.00. Subsequently, a cDNA library was made with a High-Capacity cDNA Reverse Transcription Kit (ThermoFisher Scientific, Catalog# 4,374,967), with 2 µg of total RNA per […]. Reactions were carried out in a PTC-200 Peltier Thermal Cycler; the conditions were as follows: 25 °C for 10 min, 37 °C for 120 min, 85 °C for 5 min, with final storage at 4 °C. RT-qPCR reactions were conducted in an Applied Biosystems Viia7 Real-Time PCR System using Maxima SYBR Green/ROX qPCR Master Mix (ThermoFisher Scientific, Catalog #K022) and with the recommended three-step cycling protocol. All CT values were normalized to the geometric mean of three housekeeping genes, β-actin, GAPDH, and 18S, as recommended by Vandesompele et al.. Fold change was calculated by the ∆∆Ct method. Primer sequences are provided in Supplementary Table 1. For brain samples, relative mRNA levels were generated by normalizing to sham.
Statistical analysis of infarct percentage comparing two groups was performed using unpaired t-test. Statistical analysis of three groups (e.g., vehicle vs senicapoc 10 mg/kg vs senicapoc 40 mg/kg) was performed with analysis of variance (ANOVA) with a post hoc pair-wise comparison using Tukey’s test (Origin software), as previously described. All data are shown as box-and-whisker plots with an overlay of the individual animal data. The boxes show mean ± S.E.M, and the whiskers show confidence intervals. The categorical neurological scoring data in Fig. 3 b is shown as a scatter plot without means or S.E.M and was analyzed with the Mann–Whitney U test as per recommendations for optimal presentation and analysis of non-parametric data in pre-clinical stroke studies by Dirnagl. For the IHC data in Fig. 5 comparing two groups, unpaired t-tests were performed. The brain qPCR data in Fig. 7 was analyzed in Prism using one-way ANOVA followed by Dunnett’s test to correct for multiple comparisons. For all statistical testing, P < 0.05 was used as the level of significance. * = P < 0.05, ** = P < 0.01, *** = P < 0.001.

[7] = design: method as in PMID 31019997; settings: mice; cited from earlier work
[8] = fold-change relative to sham, day 8, adjusted P 0.01
[9] = fold-change relative to sham, day 8, adjusted P <0.001

T1 sequence (P00750 36-562): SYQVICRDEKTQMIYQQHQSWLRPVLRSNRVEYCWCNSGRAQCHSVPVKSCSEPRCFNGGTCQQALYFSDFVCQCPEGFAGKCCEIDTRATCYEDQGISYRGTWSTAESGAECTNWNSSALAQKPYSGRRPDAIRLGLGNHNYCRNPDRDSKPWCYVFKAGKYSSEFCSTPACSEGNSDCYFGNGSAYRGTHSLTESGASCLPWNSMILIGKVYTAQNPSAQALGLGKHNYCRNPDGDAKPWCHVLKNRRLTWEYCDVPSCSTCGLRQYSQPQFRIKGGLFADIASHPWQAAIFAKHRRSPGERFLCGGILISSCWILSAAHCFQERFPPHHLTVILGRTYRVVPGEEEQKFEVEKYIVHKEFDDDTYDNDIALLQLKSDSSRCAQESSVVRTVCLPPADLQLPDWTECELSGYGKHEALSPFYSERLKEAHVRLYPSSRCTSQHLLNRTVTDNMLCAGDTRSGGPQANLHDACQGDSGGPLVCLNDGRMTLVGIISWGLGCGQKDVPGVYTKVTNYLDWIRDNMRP

## NC(=O)C(c1ccccc1)(c1ccc(F)cc1)c1ccc(F)cc1 [senicapoc]
[1]
  induction of inflammasome component NLRP3: prevented induction
  mRNA levels of iNOS and COX-2: significantly reduced
[1]; 1 h pre-incubation
  mRNA expression of IL-1β, TNF-α, IL-6 and IL-10: concentration-dependently reduced
[2]
  binding to brain tissue extract: 98.1 ± 0.5%
[3]
  binding to plasma protein: 96.8 ± 0.5%
[4]
  half-life: 288 h
[5]
  effect on tPA activity (absorbance at 405 nm): no effect
[6]; 40 mg/kg started 3 h, day 8, vs vehicle
  expression of IL-1β, TNF-α, IL-6, CD68, NLRP3, IL-2, IFN-γ, IL-4 and IL-10 in the infarcted hemisphere: significantly reduced
[6]; fold-change relative to sham, day 8, 40 mg/kg started 3 h, adjusted P <0.001
  il1b mRNA, Mean Diff. vehicle-treated ipsi vs senicapoc-treated ipsi: 3.115
[6]; fold-change relative to sham, day 8, adjusted P 0.003
  tgfb mRNA, Mean Diff. vehicle-treated ipsi vs senicapoc-treated ipsi: 2.876
[6]; [8]
  il4 mRNA, Mean Diff. vehicle-treated ipsi vs senicapoc-treated ipsi: 2.833
  nlrp3 mRNA, Mean Diff. vehicle-treated ipsi vs senicapoc-treated ipsi: 4.839
[6]; fold-change relative to sham, day 8, adjusted P 0.48
  inos mRNA, Mean Diff. vehicle-treated ipsi vs senicapoc-treated ipsi: 6.938
[6]; fold-change relative to sham, day 8, adjusted P 0.79
  bdnf mRNA, Mean Diff. vehicle-treated ipsi vs senicapoc-treated ipsi: -11.09
[6]; fold-change relative to sham, day 8, adjusted P 0.98
  il17a mRNA, Mean Diff. vehicle-treated ipsi vs senicapoc-treated ipsi: 0.3131
[6]; [9]
  cd68 mRNA, Mean Diff. vehicle-treated ipsi vs senicapoc-treated ipsi: 12.76
  ifng mRNA, Mean Diff. vehicle-treated ipsi vs senicapoc-treated ipsi: 8.327
  il2 mRNA, Mean Diff. vehicle-treated ipsi vs senicapoc-treated ipsi: 10.6
  il6 mRNA, Mean Diff. vehicle-treated ipsi vs senicapoc-treated ipsi: 7.107
  il10 mRNA, Mean Diff. vehicle-treated ipsi vs senicapoc-treated ipsi: 13.82
  tnfa mRNA, Mean Diff. vehicle-treated ipsi vs senicapoc-treated ipsi: 6.221
[7]
  half-life: 1 h
